# In PubChem BioAssay (NCI):
#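 Method: 48-hour compound exposure of cells in 96-well plates, five concentrations, linear interpolation of endpoints. TGI: total growth inhibition.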 Where a SMILES comes first, the peptide text is derived from it.
# Assays:
# Assay in all cases: NCI-60 cell line screen, 48 h
# HS 578T breast = tested on: HS 578T breast
# OVCAR-8 ovarian = tested on: OVCAR-8 ovarian
# SK-MEL-28 melanoma = tested on: SK-MEL-28 melanoma
# NCI/ADR-RES ovarian = tested on: NCI/ADR-RES ovarian
# OVCAR-5 ovarian = tested on: OVCAR-5 ovarian
# M14 melanoma = tested on: M14 melanoma
# HOP-92 NSCLC = tested on: HOP-92 NSCLC
# K-562 leukemia = tested on: K-562 leukemia
# UO-31 renal = tested on: UO-31 renal
# SNB-75 CNS = tested on: SNB-75 CNS
# OVCAR-4 ovarian = tested on: OVCAR-4 ovarian
# SR leukemia = tested on: SR leukemia
# COLO 205 colon = tested on: COLO 205 colon
# HL-60(TB) leukemia = tested on: HL-60(TB) leukemia
# RXF 393 renal = tested on: RXF 393 renal
# TK-10 renal = tested on: TK-10 renal
# MALME-3M melanoma = tested on: MALME-3M melanoma
# SF-295 CNS = tested on: SF-295 CNS
# UACC-257 melanoma = tested on: UACC-257 melanoma
# SK-MEL-5 melanoma = tested on: SK-MEL-5 melanoma
SMILES,TGI (HS 578T breast) [µM],TGI (OVCAR-8 ovarian) [µM],TGI (SK-MEL-28 melanoma) [µM],TGI (NCI/ADR-RES ovarian) [µM],TGI (OVCAR-5 ovarian) [µM],TGI (M14 melanoma) [µM],TGI (HOP-92 NSCLC) [µM],TGI (K-562 leukemia) [µM],TGI (UO-31 renal) [µM],TGI (SNB-75 CNS) [µM],TGI (OVCAR-4 ovarian) [µM],TGI (SR leukemia) [µM],TGI (COLO 205 colon) [µM],TGI (HL-60(TB) leukemia) [µM],TGI (RXF 393 renal) [µM],TGI (TK-10 renal) [µM],TGI (MALME-3M melanoma) [µM],TGI (SF-295 CNS) [µM],TGI (UACC-257 melanoma) [µM],TGI (SK-MEL-5 melanoma) [µM]
CC(=O)NC(CS)C(=O)NC(CO)C(=O)NC(CO)C(=O)NC(Cc1c[nH]c2ccccc12)C(=O)N1CCCC1C(=O)NC(CO)C(=O)NC(Cc1c[nH]c2ccccc12)C(=O)NC(Cc1c[nH]cn1)C(=O)NC(CO)C(=O)NC(Cc1c[nH]c2ccccc12)C(=O)NCC(=O)NCC(=O)NC(CC(=O)O)C(=O)NC(CCC(N)=O)C(=O)NC(CCCCN)C(=O)NC(Cc1ccccc1)C(=O)NC(CCCNC(=N)N)C(=O)NC(CCCCN)C(N)=O (stereo not drawn) (Ac-CSSWPSWHSWGGDQKFRK-NH2; configuration not given here),> 25,> 25,> 25,> 25,> 25,> 25,> 25,> 25,> 25,> 25,> 25,> 25,> 25,> 25,> 25,> 25,> 25,> 25,> 25,> 25
CCOC(=O)CCC(C(=O)OCC)n1nnc2ccc(Nc3c(C)[n+]([O-])c4cc(Cl)ccc4[n+]3[O-])cc21 (stereo not drawn),> 100,55.5,–,> 100,> 100,40.2,38.7,57.7,> 100,> 100,39.1,> 100,35.7,83.5,60.8,> 100,35.2,> 100,30.8,–
CCO/C=N/C1=C(C#N)C(c2ccc(Cl)cc2)c2c(-c3ccccc3)nn(-c3ccccc3)c2O1 (stereo not drawn),> 28.1,> 80.8,39.5,> 85.4,> 70.1,20.3,29.1,> 100,31.9,29.1,> 64.8,> 100,> 100,> 100,28.6,14.2,30,32.2,35.9,–
CC1=C(C#N)C2C(=C(N)Oc3ccccc32)C(N)=N1 (stereo not drawn),72.1,56.8,–,45.6,91.6,64.6,–,90.8,41.2,64.1,77.7,> 100,67,> 100,> 100,47.5,35.5,> 100,69.6,49.5
c1ccc(N=c2sc3ccccc3sc2=Nc2ccccc2)cc1,7.51,4.08,3.4,7.03,3.83,–,9.93,> 100,2.93,11.5,3.68,> 100,3.69,> 100,3.49,12.9,3.57,12.5,12.7,5.14
CCCNC(C#N)c1ccc(OCCCCCCCCCCOc2ccc(C(C#N)NCCC)cc2)cc1 (stereo not drawn),> 100,> 100,> 100,> 100,> 100,> 100,66.1,76.3,> 100,> 100,> 100,61.3,> 100,43,65.1,69.2,> 100,> 100,> 100,> 100
OCc1ccc2c(c1)CC1(C2)Cc2cc3c(cc2C1)CCC3,29.3,> 100,> 100,> 100,> 100,> 100,> 74,> 100,> 100,8.18,> 100,> 100,–,> 100,28.5,> 79.6,> 100,> 44.5,> 100,> 31.2
COc1cc2nc(-c3ccccc3F)[nH]c(=O)c2cc1OC,> 100,> 100,–,> 100,> 100,> 100,> 100,> 100,> 100,> 100,> 100,> 100,> 100,> 100,> 100,> 100,> 100,> 100,> 100,> 100
C[C@]12CC[C@H](O)C=C1CC[C@@H]1[C@@H]2CC[C@]2(C)C(=N/O)/C(=C/c3ccncc3)C[C@@H]12,> 100,76,60.2,96.8,43.8,24.6,31.6,> 100,20.5,43.8,76,16.2,38.8,35.4,26.3,38.3,48.5,39.5,32.8,18
CN1CCCC1=NC#N,> 100,> 100,> 100,> 100,> 100,> 100,–,> 100,> 100,> 100,> 100,> 100,> 100,> 100,> 100,> 100,> 100,> 100,–,> 100
Cc1cc(S(=O)(=O)n2ccnc2Oc2ccccc2)c(SSc2cc(Cl)c(C)cc2S(=O)(=O)n2ccnc2Oc2ccccc2)cc1Cl,38.6,> 100,> 100,> 100,> 100,> 100,> 100,> 100,> 100,> 100,> 100,> 100,> 100,> 100,> 100,> 100,> 100,–,> 100,> 100
CC(C)Oc1ccc(CNC2=NCCO2)c2ccccc12,32,31.9,27.6,31.9,24.3,24.4,–,15.8,18.2,34.7,31.1,26.3,36.8,23.6,28.3,30.2,28,26.8,20,26.3
